# Measurements taken from US7935349B2, “CRMP4b inhibitory peptide” (The Royal Institution for the Advancement of …, priority 2006, dated 2011).
# Legend:
# CRMP4b-RhoA binding = target: T1, CRMP4b-RhoA binding (Homo sapiens, UniProt P61586); assay: CRMP-RhoA co-immunoprecipitation, full length CRMP4b binding to RhoA in co-transfected HEK293T cells; assay type: cell-based, rat; settings: co-transfection with myc-RhoAWT and CRMP4-V5, myc-immunoprecipitation, FIG. 7c
# T1 construct: expressed in transfected cells; host or cells: HEK293T
# T1 sequence (P61586 1-190 limits assumed): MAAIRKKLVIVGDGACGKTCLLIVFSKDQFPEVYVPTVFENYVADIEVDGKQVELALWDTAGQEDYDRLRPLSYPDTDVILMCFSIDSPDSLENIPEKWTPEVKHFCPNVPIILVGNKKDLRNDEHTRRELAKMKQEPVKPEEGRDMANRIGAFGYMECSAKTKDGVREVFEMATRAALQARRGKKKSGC
# Description: (§1) HEK 293T cells were grown to sub-confluence and transfected with Lipofectamine 2000 according to manufacturer instructions (Invitrogen, Burlington, Ontario), washed twice with ice-cold PBS and lysed in lysis buffer A (50 mM Tris, pH 7.4, 150 mM NaCl, 1 mM EDTA, 1% (v/v) Triton X-100, 1 mM Na3VO4, 1 mM NaF, 1 mM PMSF and CØmplete protease inhibitors (Roche Diagnostics, Laval, PQ)). Lysates were pre-cleared with protein A/G-agarose (Santa Cruz Biotechnology, Santa Cruz, Calif.) and subjected to immunoprecipitation with myc-agarose or V5-agarose (Sigma Chemical Co., Oakville, Ontario). After washing 3 times with ice-cold PBS, bound protein was eluted with SDS and immunoblotted with anti-Myc (9E10, 1:1000; Sigma Chemical Co., Oakville, Ontario) or anti-V5 (1:5000; Invitrogen, Burlington, Ontario). For time course experiments, PC12 cells were transfected for 24 hours using Lipofectamine 2000 (Invitrogen, Burlington, Ontario) and differentiated with 50 ng/ml nerve growth factor (NGF; Upstate Biotechnology, Waltham, Mass.) for 24 hours. Cells were treated with Nogo-P4 peptide for the indicated period of time at 37° C. Cells were then lysed and proteins were immunoprecipitated as described above.
# CRMP4a-RhoA binding = target: T2, CRMP4a-RhoA binding (Homo sapiens, UniProt P61586); assay: CRMP-RhoA co-immunoprecipitation, CRMP4a binding to RhoA in co-transfected HEK293T cells; assay type: cell-based, rat; settings: co-transfection with myc-RhoAWT and CRMP4-V5, myc-immunoprecipitation, FIG. 7c
# T2 construct: expressed in transfected cells; host or cells: HEK293T
# T2 sequence (P61586 1-190 limits assumed): as above
# Description: as §1
# [1] = target: T3, binding between FLAG-RhoA63L and myc-ROCK (Homo sapiens, UniProt P61586, Q63L); assay: Co-immunoprecipitation of FLAG-RhoA63L and myc-ROCK in co-transfected HEK293T cells; assay type: cell-based; settings: FIG. 7d
# T3 construct: expressed in transfected cells; host or cells: HEK293T
# T3 sequence (P61586 1-190 Q63L limits assumed): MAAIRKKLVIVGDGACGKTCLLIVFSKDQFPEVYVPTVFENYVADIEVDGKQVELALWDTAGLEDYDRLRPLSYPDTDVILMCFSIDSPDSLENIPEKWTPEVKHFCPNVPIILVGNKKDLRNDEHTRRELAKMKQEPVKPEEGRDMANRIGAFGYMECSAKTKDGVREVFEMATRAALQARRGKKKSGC
# Description: as §1
# [2] = test system: dissociated E13 chick DRG neurons; assay: Neurite outgrowth assay on myelin substrate, HSV-infected neurons; assay type: cell-based; settings: introduced via recombinant HSV, compared to GFP- or full length CRMP4b-infected neurons, FIG. 8b, d
# Description: (§2) For neurite outgrowth assays, myelin was dried down on poly-L-lysine-coated substrates. Substrates were washed and coated with 10 μg/ml laminin for 1 hr. For outgrowth on aggrecan, poly-L-lysine-coated substrates were coated with aggrecan and 10 μg/ml laminin for 2 hr at 37° C. Dissociated E13 chick DRG neurons were cultured in DRG media (F-12 medium. 10% FBS, 1% penicillin/streptomycin, 1% L-glutamine, 50 ng/ml NGF) in the presence of virus for 24 hours, fixed with 4% paraformaldehyde/20% sucrose in PBS and double stained with anti-βIII tubulin (Covance, Berkeley, Calif.) and anti-V5 antibody (Sigma Chemical Co. Oakville, Ontario). Neurite outgrowth lengths per cell were assessed using Image J, a public domain JAVA image processing program as previously described (Fournier et al., 2003).
# [3] = test system: dissociated E13 chick DRG neurons; assay: Neurite outgrowth assay on laminin (control) substrate, HSV-infected neurons; assay type: cell-based; settings: introduced via recombinant HSV, normalized to GFP-infected neurons, FIG. 8b, c
# Description: as §2
# [4] = test system: dissociated E13 chick DRG neurons; assay: Neurite outgrowth assay on aggrecan substrate, HSV-infected neurons; assay type: cell-based; settings: introduced via recombinant HSV, FIG. 8e
# Description: as §2
# E8 chick DRG neurons = assay: Sema3A-dependent growth cone collapse assay; assay type: cell-based; settings: HSV-infected, stimulated 20 min with AP-Sema3A ligand, FIG. 8f
# Description: […] Sema3A-AP or AP conditioned media was prepared as described previously (Takahashi et al., 1998). Explants were stimulated with Sema3A-AP- or AP-conditioned media at indicated concentrations for 20 min and fixed with 4% paraformaldehyde, 20% sucrose and 0.1M NaPO4. Explants were stained with rhodamine phalloidin and assessed for growth cone collapse as described (Luo et al., 1993).
# E13 chick DRG neurons = assay: Filopodia and neurite branch analysis of HSV-infected DRG growth cones; assay type: cell-based; settings: overexpression by HSV infection
# Description: E7-13 chick DRG explants were cultured in DRG media on poly-L-lysine- and laminin-coated substrates for 18 hours. For viral infections, recombinant viral preparations were added to the media 1 hour after plating. After 18 hours, cultures were treated with myelin and fixed with 4% paraformaldehyde/20% sucrose/PBS, permeabilized in 0.2% triton X-100 and double stained with polyclonal anti-RhoA antibody (Santa Cruz Biotechnology, Santa Cruz, Calif.) and anti-CRMP4b or V5 antibody. For filopodia and branch analysis, GFP and CRMP4bV5-infected growth cones were double stained with rhodamine-phalloidin (Molecular Probes, Eugene, Oreg.) and anti-V5 antibody. Filopodial length per growth cone was assessed using Image J, by measuring total filopodial length per growth cone averaged by the total number of filopodia per growth cone. Neurite branches were quantified by counting total branch buds per neurite.
Substance,effect on RhoA binding to full length CRMP4b (CRMP4b-RhoA binding),effect on RhoA binding to CRMP4a (CRMP4a-RhoA binding),effect on binding between FLAG-RhoA63L and myc-ROCK [1],neurite outgrowth on myelin substrate (myelin-dependent outgrowth inhibition) [2],basal neurite outgrowth on permissive control (laminin) substrate [3],neurite outgrowth on aggrecan [4],Sema3A-dependent growth cone collapse (E8 chick DRG neurons),"branches per neurite (E13 chick DRG neurons; average (GFP-infected: 2), FIG. 5g) [branches per neurite]","filopodia length increase versus GFP-infected growth cones (E13 chick DRG neurons; average, FIG. 5e, f, g) [%]"
"C4RIP-V5: CRMP4b-RhoA Inhibitory Peptide: first 126 residues of the unique amino terminal domain of CRMP4b (SEQ ID NO: 2), fused to a V5-epitope tag",significantly diminishes RhoA binding to full length CRMP4b,without affecting binding to CRMP4a,does not diminish binding between FLAG-RhoA63L and myc-ROCK,significantly attenuates myelin-dependent outgrowth inhibition,does not promote basal DRG outgrowth on permissive control substrates,promotes neurite outgrowth on aggrecan,no effect on Sema3A-dependent growth cone collapse,–,–
"CRMP4b-V5: full length rat CRMP4b (SEQ ID NO: 1) with V5-His tag, overexpressed via HSV or plasmid",–,–,does not affect the binding between FLAG-RhoA63L and myc-ROCK,–,not sufficient to mimic myelin inhibitory responses,–,–,8,70
